Values of other authors as cited in US9655905B2, “Treatment of sickle cell disease” (KING ABDULLAH UNIVERSITY OF SCIENCE AND TECHNOLOGY, priority 2011, dated 2017).

Assays:
VCAM-1 = system: VCAM-1; set-up: key to Effect on VCAM-1: increases protein levels; decrease: reduces protein levels; exert no effect on protein levels; not known: has not been experimentally determined
IL-6 = details: for Effect on IL-6: Table 6, chemokine/inflammatory, up in SCD
VLA-4 = system: VLA-4; set-up: key to Effect on VLA-4: increases protein levels; decrease: reduces protein levels; exert no effect on protein levels; not known: has not been experimentally determined
fetal hemoglobin (HbF) = details: via NO-cGMP signaling pathway (Cokic, et al 2003)
CD36 = system: CD36; set-up: key to Effect on CD36: increases protein levels; decrease: reduces protein levels; exert no effect on protein levels; not known: has not been experimentally determined
eNOS = details: for Effect on eNOS: Table 6, inhibitor of endothelial cell activation, down in SCD
IL-1β = details: for Effect on IL-1β: Table 6, cytokine/inflammatory, up in SCD
IL-10 = details: for Effect on IL-10: Table 6, anti-inflammatory; for levels of anti-inflammatory mediator IL-10: cited literature
SELE = details: for Effect on SELE: Table 6, adhesion, up in SCD
ET-3 = system: ET-3; set-up: key to Effect on ET-3: increases protein levels; decrease: reduces protein levels; exert no effect on protein levels; not known: has not been experimentally determined
IL-8 = system: IL-8; set-up: key to Effect on IL-8: increases protein levels; decrease: reduces protein levels; exert no effect on protein levels; not known: has not been experimentally determined
IL-3 = system: IL-3; set-up: key: increases protein levels; decrease: reduces protein levels; exert no effect on protein levels; not known: has not been experimentally determined; details: Table 6; inflammatory, up in SCD
FN1 = details: for Effect on FN1: Table 6, coagulatory, up in SCD
SELP = details: for Effect on SELP: Table 6, adhesion, up in SCD
TNFα = details: for Effect on TNFα: Table 6, cytokine/inflammatory, up in SCD; for levels of TNF-α: cited literature
NFkB = details: for Effect on NFkB: Table 6, activator of endothelial cells, up in SCD
[1] = system: erythrocyte-endothelial adhesion; details: HU therapy (Gambero, et al 2007)
NO = details: for Effect on NO: Table 6, vasodilator, down in SCD
GM-CSF = system: GM-CSF; set-up: key to Effect on GM-CSF: increases protein levels; decrease: reduces protein levels; exert no effect on protein levels; not known: has not been experimentally determined
ICAM-1 = details: for Effect on ICAM-1: Table 6, adhesion, up in SCD
ET-1 = details: for Effect on ET-1: Table 6, vasoconstrictor, up in SCD; for levels of vasoconstrictor ET-1: cited literature
cGMP = details: Dai, et al 2011
[2] = system: leukocyte-endothelial adhesion; details: colonic UR injury (Santen, et al 2010)
[3] = system: (G) gamma-globin promoter
[4] = HU in SCD, endothelial adhesion molecule
[5] = on the surface of erythrocytes, HU therapy
[6] = colonic UR injury (Santen, et al 2010)
[7] = Table 6, activator of endothelial cells, up in SCD

SMILES: NC(=O)NO [HU, Hydroxyurea]
- levels of sVCAM-1 (VCAM-1; [4]): decreasing
- Effect on VCAM-1 (VCAM-1; Table 6, adhesion, up in SCD): decrease
- expression of IL-6 (IL-6; HU (Laurance, et al 2010)): increases
- Effect on IL-6 (IL-6): increase
- Effect on VLA-4 (VLA-4; Table 6, adhesion, up in SCD): decrease
- gene and protein expression of VLA-4 (VLA-4; [5]): reducing
- production of fetal hemoglobin (HbF)-containing erythrocytes (fetal hemoglobin (HbF)): increasing
- Effect on CD36 (CD36; Table 6, adhesion, up in SCD): decrease
- gene and protein expression of CD36 (CD36; [5]): reducing
- Effect on eNOS (eNOS): increase
- Effect on IL-1β (IL-1β): increase
- Effect on IL-10 (IL-10): increase
- levels of anti-inflammatory mediator IL-10 (IL-10): increase
- levels of sSELE (SELE; [4]): decreasing
- Effect on SELE (SELE): decrease
- levels of vasoconstrictor ET-3 (ET-3; HU in SCD (Makis, et al 2004)): decreasing
- Effect on ET-3 (ET-3; Table 6, vasoconstrictor, up in SCD): decrease
- expression of IL-8 (IL-8; HU (Laurance, et al 2010)): increases
- levels of IL-8 (IL-8; HU therapy (Lanaro, et al 2009)): no effect
- Effect on IL-8 (IL-8; Table 6, chemokine/inflammatory, up in SCD): increase
- Effect on IL-3 (IL-3): increase
- levels of the pro-coagulatory molecule fibronectin (FN1; HU (Saleh, et al 1999)): no demonstrable effects
- Effect on FN1 (FN1): no effect
- levels of sSELP (SELP; [4]): decreasing
- Effect on SELP (SELP): decrease
- Effect on TNFα (TNFα): decrease
- levels of TNF-α (TNFα): decreased
- Effect on NFkB (NFkB): decrease
- erythrocyte-endothelial adhesion [1]: reduce
- NO bioavailability (NO; HU treatment of SCD (Conran, et al 2004)): increased
- Effect on NO (NO): increase
- levels of GM-CSF (GM-CSF; HU therapy (Conran, et al 2007)): decreased
- Effect on GM-CSF (GM-CSF; Table 6, inflammatory, up in SCD): decrease
- levels of sICAM-1 (ICAM-1; [4]): decreasing
- Effect on ICAM-1 (ICAM-1): decrease
- Effect on ET-1 (ET-1): decrease
- levels of vasoconstrictor ET-1 (ET-1): decreasing

SMILES: O=S(=O)(c1cccc2c(O)nccc12)N1CCCNCC1 [Hydroxyfasudil, 5-(1,4-diazepane-1-sulfonyl)isoquinolin-1-ol]
- Effect on IL-6 (IL-6): decrease
- IL-6 levels (IL-6; after hypoxia/reoxygenation injury in brain tissue (Ding, et al 2010)): reduce
- levels of cGMP (cGMP): increased
- levels of eNOS (eNOS; Dai, et al 2011): increased
- Effect on eNOS (eNOS): increase
- IL-1β (IL-1β; He, et al 2008): decrease
- Effect on IL-1β (IL-1β): decrease
- Effect on IL-10 (IL-10): increase
- levels of anti-inflammatory mediator IL-10 (IL-10): increase
- Effect on SELE (SELE): decrease
- SELE (SELE; [6]): reduce
- leukocyte-endothelial adhesion [2]: diminishing
- TF (TF; Satoh, et al 2010): reduce
- Effect on TF (TF; [7]): decrease
- Effect on FN1 (FN1): decrease
- Effect on SELP (SELP): decrease
- SELP (SELP; [6]): reduce
- Effect on TNFα (TNFα): decrease
- levels of TNF-α (TNFα): decrease
- Effect on HIF-1 (HIF-1; [7]): decrease
- HIF-1α (HIF-1; Takata, et al 2008): reduce
- NFκB (NFkB; He, et al 2008): reduce
- Effect on NFkB (NFkB): decrease
- Effect on ROS (ROS; Table 6, IR injury-related molecule, up in SCD): decrease
- injury-induced generation of ROS (ROS; UR injury (Shiotani, et al 2004)): suppress
- levels of NO (NO; Dai, et al 2011): increased
- Effect on NO (NO): increase
- Effect on ICAM-1 (ICAM-1): decrease
- ICAM-1 (ICAM-1; [6]): reduce
- ICAM-1 expression (ICAM-1; diabetes-induced microvascular damage (Arita, et al 2009)): reduce
- Effect on ET-1 (ET-1): decrease
- levels of vasoconstrictor ET-1 (ET-1): suppress

SMILES: C=C1CC[C@H]2C(C)(C)CCC[C@]2(C)[C@H]1C/C=C1/C(=O)OC[C@@H]1O [Isocoronarin D]
- production of HbF [3]: induces
- EGFP inducing potency or HbF production ([3]; rank among seven diterpenes (Chokchaisiri, et al 2010)): highest
- cell viability (K562 reporter cell line): 75-80%
- toxicity associated with HbF induction (K562 reporter cell line): little to no
